Among the data in ChEMBL document CHEMBL2157896, “Engineering pH-gated transitions for selective and efficient double-strand DNA photocleavage in hypoxic tumors” (J Med Chem, 2011) are Activity values, retold here.

The source made the active and inactive calls. The rule behind the calls is not given here.

Assay [1] relates to Nucleic Acid. Nature of the assay: Induction of photochemical DNA cleavage in Escherichia coli pBR322 assessed as disappearance of supercoiled DNA at 15 uM in pH 8.0 phosphate buffer after 10 mins of UV irradiation. It is filed as nucleic-acid assay.
Assay [2] has as its system Nucleic Acid. Put plainly: Induction of photochemical DNA cleavage in Escherichia coli pBR322 assessed as form I level at 15 uM in pH 7.0 phosphate buffer measured after 8 mins of UV irradiation. Type of assay: nucleic-acid assay.
In assay [3] the test system is Nucleic Acid. Nature of the assay: Induction of photochemical DNA cleavage in Escherichia coli pBR322 assessed as form I level at 15 uM in pH 8.0 phosphate buffer measured after 8 mins of UV irradiation. It is filed as nucleic-acid assay.
Assay [4] deals with Nucleic Acid. Put plainly: Induction of photochemical DNA cleavage in Escherichia coli pBR322 assessed as form 2 level at 15 uM in pH 8.0 phosphate buffer measured after 4 mins of UV irradiation. It is filed as nucleic-acid assay.
Assay [5] deals with Nucleic Acid. Nature of the assay: Induction of photochemical DNA cleavage in Escherichia coli pBR322 assessed as form 3 level at 15 uM in pH 6.0 phosphate buffer measured after 2 mins of UV irradiation. Type of assay: nucleic-acid assay.
In assay [6] the test system is Nucleic Acid. Nature of the assay: Induction of photochemical DNA cleavage in Escherichia coli pBR322 assessed as form 3 level at 15 uM in pH 8.0 phosphate buffer measured after 0.5 mins of UV irradiation. Type of assay: nucleic-acid assay.
The test system of assay [7] is Nucleic Acid. Put plainly: Induction of DNA damage in human […] cells at 30 uM incubated for 3 hrs using cells exposed to UV irradiation for 4 to 24 hrs by single cell gel electrophoresis. Type of assay: cell-based. The settings on record: TDE = time-dependent effect.

As for `NCCCC[C@H](N)C(=O)NCCCC[C@H](N)C(=O)Nc1ccc(C#Cc2c(F)c(F)nc(F)c2F)cc1.O=C(O)C(F)(F)F`, in assay [1], the outcome was Active. The Activity in assay [2] was 20.9%; in assay [3], 42.3%; in assay [4], 41.4%; in assay [5], 28.4%; in assay [6], 0%; in assay [7], “tde”.
